According to the NIST ThermoML archive (doi:10.1021/acs.jced.5b00256):

Experiments:
[1] = relative permittivity at various frequencies (dimensionless); xn = mol fraction of the nth substance listed; conditions: 100 kPa, Liquid, Frequency=2 MHz, Parallel plate capacitor
[2] = refractive index (Na D-line) (dimensionless); xn = mol fraction of the nth substance listed; conditions: 100 kPa, Liquid, Standard Abbe refractometry

COc1cccc(Br)c1 [1-bromo-3-methoxybenzene] + CCCO
Conditions	refractive index, 303.15 K	refractive index, 313.15 K	refractive index, 323.15 K	refractive index, 333.15 K	relative permittivity, 303.15 K	relative permittivity, 313.15 K	relative permittivity, 323.15 K	relative permittivity, 333.15 K
[1], x2 = 0	–	–	–	–	7.01	6.85	6.74	6.6
[1], x2 = 0.107	–	–	–	–	7.18	7.03	6.89	6.7
[1], x2 = 0.206	–	–	–	–	7.55	7.39	7.15	6.95
[1], x2 = 0.296	–	–	–	–	8.05	7.83	7.55	7.23
[1], x2 = 0.38	–	–	–	–	8.67	8.39	8.08	7.65
[1], x2 = 0.457	–	–	–	–	9.46	9.11	8.68	8.2
[1], x2 = 0.529	–	–	–	–	10.27	9.87	9.4	8.74
[1], x2 = 0.596	–	–	–	–	11.08	10.61	10.11	9.38
[1], x2 = 0.658	–	–	–	–	12.04	11.56	10.94	10.15
[1], x2 = 0.716	–	–	–	–	12.93	12.39	11.71	10.89
[1], x2 = 0.771	–	–	–	–	13.98	13.42	12.88	11.8
[1], x2 = 0.822	–	–	–	–	15.14	14.52	13.63	12.43
[1], x2 = 0.871	–	–	–	–	16.23	15.6	14.65	13.33
[1], x2 = 0.916	–	–	–	–	17.33	16.62	15.64	14.3
[1], x2 = 0.959	–	–	–	–	18.58	17.66	16.7	15.22
[2], x2 = 0	1.56	1.558	1.553	1.55	–	–	–	–
[2], x2 = 0.107	1.555	1.552	1.548	1.546	–	–	–	–
[2], x2 = 0.206	1.544	1.54	1.535	1.532	–	–	–	–
[2], x2 = 0.296	1.53	1.528	1.523	1.519	–	–	–	–
[2], x2 = 0.38	1.517	1.515	1.512	1.508	–	–	–	–
[2], x2 = 0.457	1.504	1.501	1.5	1.497	–	–	–	–
[2], x2 = 0.529	1.493	1.489	1.488	1.484	–	–	–	–
[2], x2 = 0.596	1.484	1.482	1.477	1.474	–	–	–	–
[2], x2 = 0.658	1.473	1.468	1.464	1.461	–	–	–	–
[2], x2 = 0.716	1.461	1.458	1.449	1.447	–	–	–	–
[2], x2 = 0.771	1.447	1.444	1.437	1.435	–	–	–	–
[2], x2 = 0.822	1.435	1.429	1.425	1.423	–	–	–	–
[2], x2 = 0.871	1.421	1.418	1.413	1.41	–	–	–	–
[2], x2 = 0.916	1.41	1.405	1.401	1.398	–	–	–	–
[2], x2 = 0.959	1.396	1.392	1.388	1.385	–	–	–	–
